Test results reported in US9993463B2, “Use of maleimide derivatives for preventing and treating cancer” (CENTOGENE AG, priority 2012, dated 2018).
One block for each compound: values may come before it.

What was measured:
[1] = test system: purified bovine brain tubulin; assay: Tubulin polymerisation turbidity assay; assay type: biochemical; conditions: 1 μM, 340 nm, 37° C.; for shape of OD curve over time / effect on tubulin polymerization: 60 min, FIG. 5C, untreated control sigmoid
Procedure: Purified bovine brain tubulin was used to measure tubulin-polymerisation by determining turbidity in tubulin samples incubated with compound of example 6 (PDA-66), paclitaxel or nocodazole (all 1 μM) and 0.6% DMSO in water as negative control. Optical density (OD) was measured after initiation of tubulin assembly at a wavelength of 340 nm continuously for 60 min in 1 min intervals at a temperature of 37° C. in a plate reader (Tecan, Mainz, Germany).

human immortalized cells = assay: Mitotic arrest in G2/M phase of cell cycle; assay type: cell-based; conditions: after 16 h (highest amount), control 17.4±2.3%
Excerpt: As a measure the increase in cells with double DNA content was used, where at all points in time the amount of treated cells was higher in comparison to untreated cells.

[2] = test system: MCF-7 cells (mammary gland/breast carcinoma); assay: Cell proliferation assay (CASY, current exclusion), MCF-7; assay type: cell-based; conditions: mamma carcinoma cells (printed MCF-1), 72 h
Procedure: (§1) Human neural progenitor cells ReNcell VM (Millipore, Schwalbach, Germany) were cultured on laminin-coated culture-vessels. Culture medium consisted of DMEM/F12 supplemented with B27 media supplement, GlutaMax™, gentamycin and heparin sodium salt and growth factors EGF (epidermal growth factor) and bFGF (basic fibroblast growth factor). The human neuroblastoma cell line SH-SY5Y was obtained from the German Resource Centre for Biological Material DSMZ (Braunschweig, Germany). Cells were cultivated in DMEM, supplemented with 10% FBS, 1% Penicillin-Streptomycin, 4 mM L-Glutamine. The human T cell leukemia cell line Jurkat was obtained from the German Resource Centre for Biological Material DSMZ (Braunschweig, Germany). Cells were cultivated in RPMI 1640 medium, supplemented with 10% FBS, 1% Penicillin-Streptomycin. The murine melanoma cell line B16F10 was obtained from the American Type Culture Collection (ATCC, Manassas, USA), Cells were cultivated in DMEM/GM medium supplemented with 10% FBS, 1% Penicillin-Streptomycin. […]
(§2) Cell proliferation and vitality were measured with a CASY Model TT (Roche, Mannheim, Germany) by electrical current exclusion method. […]
(§3) In a further experiment further cancer cells were treated with compound of example 2.6 (PDA-66) with a concentration of 3 μM or 10 μM for 72 h and cell number was evaluated using the current exclusion method as described above.

[3] = test system: apoptotic cells (AnnexinV/PI); assay: AnnexinV/PI apoptosis detection (FACS); assay type: cell-based; conditions: FIG. 3
Procedure: To determine the amount of apoptotic and necrotic cells a FITC AnnexinV Apoptosis Detection Kit I was used. For FACS analysis, cells were trypsinised and centrifuged at 100×g at RT for 5 min and washed with PBS without Ca2^+ and Mg^2+. Annexin V and propidium iodide (PI) were added accordingly to the manufacture's instructions. After 15 min incubation at room temperature on a shaker in the dark, the measurement was done by using FACSCalibur (Becton Dickinson, San Jose, USA) in combination with Cell Quest Pro software.

[4] = test system: colon carcinoma cells (SW480); assay: Cell proliferation assay (CASY, current exclusion), SW480; assay type: cell-based; conditions: 72 h
Procedure: as §1, §2, §3

[5] = test system: liver carcinoma cells (HepG2); assay: Cell proliferation assay (CASY, current exclusion), HepG2; assay type: cell-based; conditions: 72 h
Procedure: as §1, §2, §3

[6] = test system: murine melanoma cells (B16F10); assay: Cell proliferation assay (CASY, current exclusion), B16F10; assay type: cell-based
Procedure: (§4) Human neural progenitor cells ReNcell VM (Millipore, Schwalbach, Germany) were cultured on laminin-coated culture-vessels. Culture medium consisted of DMEM/F12 supplemented with B27 media supplement, GlutaMax™, gentamycin and heparin sodium salt and growth factors EGF (epidermal growth factor) and bFGF (basic fibroblast growth factor). The human neuroblastoma cell line SH-SY5Y was obtained from the German Resource Centre for Biological Material DSMZ (Braunschweig, Germany). Cells were cultivated in DMEM, supplemented with 10% FBS, 1% Penicillin-Streptomycin, 4 mM L-Glutamine. The human T cell leukemia cell line Jurkat was obtained from the German Resource Centre for Biological Material DSMZ (Braunschweig, Germany). Cells were cultivated in RPMI 1640 medium, supplemented with 10% FBS, 1% Penicillin-Streptomycin. The murine melanoma cell line B16F10 was obtained from the American Type Culture Collection (ATCC, Manassas, USA), Cells were cultivated in DMEM/GM medium supplemented with 10% FBS, 1% Penicillin-Streptomycin. The mammary gland/breast carcinoma cell line MCF-7 was obtained from American Type Culture Collection (ATCC, Manassas, USA) and cultivated according to standard proceedings in Eagle's Minimum Essential Medium (EMEM). The colon carcinoma cell line SW480 was obtained from American Type Culture Collection (ATCC, Manassas, USA) and cultivated according to standard proceedings in Leibovitz's L15 Medium. The lung carcinoma cell line A549 was obtained from American Type Culture Collection (ATCC, Manassas, USA) and cultivated according to standard proceedings in F-12K Medium (Kaighn's Modification of Ham's F-12 Medium). The liver carcinoma cell line Hep G2 was obtained from American Type Culture Collection (ATCC, Manassas, USA) and cultivated according to standard proceedings in Eagle's Minimum Essential Medium (EMEM).
(§5) Cell proliferation and vitality were measured with a CASY Model TT (Roche, Mannheim, Germany) by electrical current exclusion method. Cells were seeded in defined numbers into 48-well-plates and proliferated for 24 h. Subsequently fresh medium was applied containing compounds or DMSO, in the following referred as control.
(§6) 5.2 Furthermore cancer cells were treated with compound of example 2.6 (PDA-66) with a concentration of 3 μM for 72 h and cell number was evaluated using the current exclusion method as described above.
as §3

bovine neuronal tubulin = assay: VEC-DIC microscopy of tubulin polymerization; assay type: biochemical; conditions: tubulin 2 mg/ml, 37° C., 1 h, FIG. 5A, B
Procedure: In order to evaluate interference with tubulin polymerisation bovine neuronal tubulin was used, diluted in BRB80 buffer (80 mM PIPES, pH 6.8; MgCl2 1 mM; EGTA 1 mM) at a concentration of 2 mg/ml. After addition of 0.5 mM GTP and 10% DMSO, initiating tubulin polymerisation, the solution samples were incubated at 37° C. in the presence of compound of example 6 (PDA-66). After 1 h the samples were analysed by using video enhanced contrast differential interference contrast (VEC-DIC) microscopy.

[7] = test system: human T cell leukemia (Jurkat) cells; assay: Cell proliferation assay (CASY, current exclusion), Jurkat; assay type: cell-based; conditions: 72 h
Procedure: as §4, with “The lung carcinoma cell line A549 was obtained from American Type Culture Collection (ATCC, Manassas, USA) and cultivated according to standard proceedings in F-12K Medium (Kaighn's Modification of Ham's F-12 Medium). The liver carcinoma cell line Hep G2 was obtained from American Type Culture Collection (ATCC, Manassas, USA) and cultivated according to standard proceedings in Eagle's Minimum Essential Medium (EMEM).” left out
as §2, §6, §3

[8] = test system: human neuroblastoma cells (SH5Y5); assay: Cell proliferation assay (CASY, current exclusion), SH5Y5; assay type: cell-based; conditions: SH5Y5, 3 μM, 72 h, FIG. 2
Procedure: as §1, §2, §6

[9] = test system: lung carcinoma cells (A 549); assay: Cell proliferation assay (CASY, current exclusion), A549; assay type: cell-based; conditions: for proliferation relative to control: 72 h
Procedure: as §4, with “The liver carcinoma cell line Hep G2 was obtained from American Type Culture Collection (ATCC, Manassas, USA) and cultivated according to standard proceedings in Eagle's Minimum Essential Medium (EMEM).” left out
as §2, §3

[10] = test system: human neuronal progenitor cells (hNPCs, ReNcell VM); assay: Cell proliferation and vitality assay (CASY, current exclusion), hNPCs; assay type: cell-based; conditions: for proliferation relative to control: 72 h
Procedure: as §4, §5
5.1 Cytotoxic effects were evaluated using human fetal cells immortalized by transfection with the oncogen v-myc (Donato et al., Differential development of neuronal physiological responsiveness in two human neural stem cell lines. BMC Neurosci.; 8, 2007), also referred to herein as human neuronal progenitor cells, hNPCs, or ReNcell VM, providing a sensitive screening system and cancer cells, namely SH5Y5, Jurkat and B16F10 cells. Cytotoxic effects were measured by comparison of cells numbers of DMSO treated cells (control) and cell numbers of cells treated with compound of above mentioned example 2.6 (PDA66). Cell proliferation and vitality was measured with a CASY Model TT (Roche, Mannheim, Germany) by electrical current exclusion method. Cells were seeded in defined numbers into 48-well-plates and proliferated for 24 h: Subsequently fresh medium was applied containing compound of example 6 (3 μM) (PDA-66) or DMSO, in the following referred as control. Cell number and cell vitality was measured after 72 h.

Compound: COC(=O)Nc1nc2ccc(C(=O)c3cccs3)cc2[nH]1 [nocodazole]
maximal OD after 60 min [1]: 1.01 rel. units | shape of OD curve over time / effect on tubulin polymerization [1]: nearly linear curve

IC50 ([6]; Mus musculus, B16-F10, B16F10 cells): 1.07 µM | IC50 ([9]; Homo sapiens, A549 cells): 8.98 µM
Compound: CC(=O)c1ccc(C2=C(c3c(C)[nH]c4ccccc34)C(=O)N(C)C2=O)cc1 [PDA-66, 3-(4-Acetylphenyl)-1-methyl-4-(2-methyl-1H-indol-3-yl)-1H-pyrrole-2,5-dione]
amount of cells in G2/M phase of cell cycle (human immortalized cells): 68.9±10.3% | proliferation relative to control ([2]; 3 μM): 43.0±2.8% | proliferation relative to control ([2]; 10 μM): 38.3±11.8% | apoptotic cells (AnnexinV+/PI− and AnnexinV+/PI+) [3]: increase of apoptotic cells | proliferation relative to control ([4]; SW480, 3 μM): 61.3±0.6% | proliferation relative to control ([4]; SW480, 10 μM): 56.6±6.6% | proliferation relative to control ([5]; HepG2, 3 μM): 74.8±6.3% | proliferation relative to control ([5]; HepG2, 10 μM): 47.2±3.8% | proliferation relative to control ([6]; B16F10, 3 μM, 72 h): 7.2±1.3% | cell numbers versus control ([6]; B16F10, 3 μM, 72 h, FIG. 2): reduced or attenuated significantly | proliferation relative to control ([6]; B16F10, at 10 (unit not given), 72 h): 8.3±2.6% | maximal OD after 60 min [1]: 1.04 rel. units | shape of OD curve over time / effect on tubulin polymerization [1]: destabilized tubulin in a way comparable to nocodazole | microtubule (MT) polymerization by VEC-DIC microscopy (bovine neuronal tubulin): hindered the MT-polymerization | proliferation relative to control ([7]; 3 μM): 18.2±2.2% | cell numbers versus control ([7]; 3 μM, FIG. 2): reduced or attenuated significantly | proliferation relative to control ([7]; 10 μM): 31.9±5.9% | cell numbers versus control [8]: reduced or attenuated significantly | proliferation relative to control ([9]; A 549, 3 μM): 57.1±9.2% | proliferation relative to control ([9]; A 549, 10 μM): 65.7±8.0% | proliferation relative to control ([10]; 3 μM): 3.6±1.2% | number of vital cells (vitality) versus control ([10]; 3 μM, FIG. 1 right panel): significantly lower | proliferation of immortalized cells (cell number) versus control ([10]; 3 μM, up to 72 h, FIG. 1 left panel): no proliferation | proliferation relative to control ([10]; 10 μM): 0.9±0.2% | effect of concentration on proliferation of immortalized cells ([10]; FIG. 6): dose-dependent effect | IC50 ([10]; Homo sapiens, ReNcell VM): 0.532 µM

Compound: CC(=O)O[C@H]1C(=O)[C@@]2(C)[C@H]([C@H](OC(=O)c3ccccc3)[C@]3(O)C[C@H](OC(=O)[C@H](O)[C@@H](NC(=O)c4ccccc4)c4ccccc4)C(C)=C1C3(C)C)[C@]1(OC(C)=O)CO[C@@H]1C[C@@H]2O [paclitaxel]
maximal OD after 60 min [1]: 1.18 rel. units | shape of OD curve over time / effect on tubulin polymerization [1]: comparable shape but with a steeper slope
